Measurements from patent US20130158031A1 (SU ZHOU JING HONG BIOTECH CO., LTD., priority 2011, published 2013).

target: T1, human PDE10A (Homo sapiens, UniProt Q9Y233); assay: PDE10A inhibition assay (IMAP fluorescence polarization); format: biochemical; settings: hPDE10A enzyme from transfected HEK293 cell lysate, fluorescein-labeled cAMP/cGMP
T1 construct: Full-length human PDE10A cDNA is amplified using PCR; made in house; host or cells: HEK293 cells, transiently transfected with Lipofectamine 2000; supernatant of the sonicated lysate after 10,000 g
T1 sequence (Q9Y233 1-779 isoform Q9Y233-1): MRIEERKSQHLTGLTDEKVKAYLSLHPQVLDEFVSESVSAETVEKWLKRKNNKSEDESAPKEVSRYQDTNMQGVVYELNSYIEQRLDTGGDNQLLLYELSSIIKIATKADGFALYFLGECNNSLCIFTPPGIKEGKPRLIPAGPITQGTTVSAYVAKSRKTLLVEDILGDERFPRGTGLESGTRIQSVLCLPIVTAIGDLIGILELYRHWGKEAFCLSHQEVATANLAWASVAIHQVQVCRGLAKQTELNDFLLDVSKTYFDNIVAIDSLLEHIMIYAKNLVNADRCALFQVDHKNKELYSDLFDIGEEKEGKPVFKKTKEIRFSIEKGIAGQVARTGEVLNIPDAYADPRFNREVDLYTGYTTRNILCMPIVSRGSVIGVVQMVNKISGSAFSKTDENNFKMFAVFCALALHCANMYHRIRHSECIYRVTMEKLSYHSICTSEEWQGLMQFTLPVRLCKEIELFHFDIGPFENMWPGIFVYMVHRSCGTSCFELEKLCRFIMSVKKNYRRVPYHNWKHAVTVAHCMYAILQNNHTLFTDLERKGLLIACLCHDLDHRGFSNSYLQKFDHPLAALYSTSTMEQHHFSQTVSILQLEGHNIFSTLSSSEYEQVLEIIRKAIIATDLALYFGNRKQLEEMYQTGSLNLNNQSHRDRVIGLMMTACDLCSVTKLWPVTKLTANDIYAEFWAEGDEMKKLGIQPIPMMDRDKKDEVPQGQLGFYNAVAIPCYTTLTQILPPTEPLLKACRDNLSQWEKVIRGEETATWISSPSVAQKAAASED
Description: Full-length human PDE10A cDNA is amplified using PCR and cloned into pcDNA3.0 vector (Invitrogen). After verified by DNA sequencing, the plasmid is transfected into HEK293 cell using the Lipofectamine 2000 reagent (Invitrogen). Cells are subsequently harvested and sonicated in cell lysis buffer. After centrifuged at 10,000 g for 20 minutes, supernatant containing cytosolic hPDE10A enzyme is collected and stored at −80° C. PDE10A inhibition assay is performed using the IMAP fluorescence polarization assay (Molecular Devices) according to the manufacturer's protocols. A fixed amount of the hPDE10A enzyme is pretreated with the test compounds, following the addition of fluorescein-labeled cAMP/cGMP. After 1 hour incubation, the IMAP binding reagent is added and incubated for another hour. The fluorescence polarization is then quantified with a fluorescence polarization reader Envision from Perkin Elmer. IC50 values are calculated using the Prism program (GraphPad Software).

Row | SMILES | IC50 [nM]
1 | C(#Cc1ccc2ccccc2n1)c1ccc(-n2cnnc2-c2ccncc2)cc1 [Example 23, 2-((4-(3-(pyridin-4-yl)-4H-1,2,4-triazol-4-yl)phenyl)ethynyl)quinoline] | 10 to 100
2 | Cn1ncc(-c2ccc(C#Cc3ccc4ccccc4n3)cc2)c1-c1ccncc1 [Example 37, 2-((4-(1-methyl-5-(pyridin-4-yl)-1H-pyrazol-4-yl)phenyl)ethynyl)quinoline] | 10 to 100
3 | Cn1cc(-c2ccc(O)cc2)c(-c2ccc(C#Cc3ccc4ccccc4n3)cc2)n1 [Example 34, 4-(1-methyl-3-(4-(quinolin-2-ylethynyl)phenyl)-1H-pyrazol-4-yl)phenol] | 10 to 100
4 | Cn1cc(-c2ccncc2)c(-c2ccc(C#Cc3cccc(C(F)(F)F)n3)cc2)n1 [Example 8, 2-((4-(1-methyl-4-(pyridin-4-yl)-1H-pyrazol-3-yl)phenyl)ethynyl)-6-(trifluoromethyl)pyridine] | 100 to 1000
5 | Cc1cccc(C#Cc2ccc(-c3nn(C)cc3-c3ccncc3)cc2)n1 [Example 3] | ≤ 10
6 | CN(C)CCn1cc(-c2ccncc2)c(-c2ccc(C#Cc3ccc4ccccc4n3)cc2)n1 [Example 17, N,N-dimethyl-2-(4-(pyridine-4-yl)-3-(4-(quinolin-2-ylethynyl)phenyl)-1H-pyrazol-1-yl)ethanamine] | ≤ 10
7 | C(#Cc1ccc2ccccc2n1)c1ccc(-c2ncncc2-c2ccncc2)cc1 [Example 20, 2-((4-(5-(pyridin-4-yl)pyrimidin-4-yl)phenyl)ethynyl)quinoline] | 10 to 100
8 | Cn1cc(-c2ccncn2)c(-c2ccc(C#Cc3ccc4ccccc4n3)cc2)n1 [Example 26] | 10 to 100
9 | C(#Cc1ccc2ccccc2n1)c1ccc(-c2c[nH]nc2-c2ccncc2)cc1 [Example 35, 2-((4-(3-(pyridin-4-yl)-1H-pyrazol-4-yl)phenyl)ethynyl)quinoline] | ≤ 10
10 | Cn1cc(-c2ccncc2)c(-c2ccc(C#Cc3cccc(C4CC4)n3)cc2)n1 [Example 5, 2-cyclopropyl-6-((4-(1-methyl-4-(pyridin-4-yl)-1H-pyrazol-3-yl)phenyl)ethynyl)pyridine] | 10 to 100
11 | Cn1cc(-c2ccc(C#Cc3ccc4ccccc4n3)cc2)c(-c2ccncc2)n1 [Example 36, 2-((4-(1-methyl-3-(pyridin-4-yl)-1H-pyrazol-4-yl)phenyl)ethynyl)quinoline] | ≤ 10
12 | CCn1cc(-c2ccncc2)c(-c2ccc(C#Cc3ccc4ccccc4n3)cc2)n1 [Example 15, 2-((4-(1-ethyl-4-(pyridin-4-yl)-1H-pyrazol-3-yl)phenyl)ethynyl)quinoline] | ≤ 10
13 | Cn1cc(-c2ccncc2)c(-c2ccc(C#Cc3ccc4ccccc4n3)cn2)n1 [Example 27, 2-((6-(1-methyl-4-(pyridin-4-yl)-1H-pyrazol-3-yl)pyridin-3-yl)ethynyl)quinoline] | ≤ 10
14 | C(#Cc1ccc2ccccc2n1)c1ccc(-c2n[nH]cc2-c2ccncc2)cc1 [Example 11, 2-((4-(4-(pyridin-4-yl)-1H-pyrazol-3-yl)phenyl)ethynyl)quinoline] | ≤ 10
15 | Cn1cc(-c2ccncc2)c(-c2ccc(C#Cc3ncc4ccccc4n3)cc2)n1 [Example 2, 2-((4-(1-methyl-4-(pyridin-4-yl)-1H-pyrazol-3-yl)phenyl)ethynyl)quinazoline] | ≤ 10
16 | C(#Cc1ccc2ccccc2n1)c1ccc(-c2nn(C3CC3)cc2-c2ccncc2)cc1 [Example 12, 2-((4-(1-cyclopropyl-4-(pyridin-4-yl)-1H-pyrazol-3-yl)phenyl)ethynyl)quinoline] | ≤ 10
17 | Cn1cc(-c2ccncc2)c(-c2ccc(C#Cc3ccc4ccccc4n3)cc2F)n1 [Example 25, 2-((3-fluoro-4-(1-methyl-4-(pyridin-4-yl)-1H-pyrazol-3-yl)phenyl)ethynyl)quinoline] | ≤ 10
18 | CCn1cc(-c2ccncc2)c(-c2ccc(C#Cc3ccc4ccccc4n3)nc2)n1 [Example 31, 2-((5-(1-ethyl-4-(pyridin-4-yl)-1H-pyrazol-3-yl)pyridin-2-yl)ethynyl)quinoline] | ≤ 10
19 | C(#Cc1ccc2ccccc2n1)c1ccc(-n2ncnc2-c2ccncc2)cc1 [Example 21, 2-((4-(5-(pyridin-4-yl)-1H-1,2,4-triazol-1-yl)phenyl)ethynyl)quinoline] | 10 to 100
20 | COc1ccc(-c2cn(C)nc2-c2ccc(C#Cc3ccc4ccccc4n3)cc2)cc1 [Example 33, 2-((4-(4-(4-methoxyphenyl)-1-methyl-1H-pyrazol-3-yl)phenyl)ethynyl)quinoline] | 10 to 100
21 | Cn1cc(-c2ccncc2)c(-c2ccc(C#Cc3ccc(C(F)(F)F)cn3)cc2)n1 [Example 9, 2-((4-(1-methyl-4-(pyridin-4-yl)-1H-pyrazol-3-yl)phenyl)ethynyl)-5-(trifluoromethyl)pyridine] | 100 to 1000
22 | FCCn1cc(-c2ccncc2)c(-c2ccc(C#Cc3ccc4ccccc4n3)cc2)n1 [Example 19, 2-((4-(1-(2-fluoroethyl)-4-(pyridin-4-yl)-1H-pyrazol-3-yl)phenyl)ethynyl)quinoline] | ≤ 10

Next, values leading:

Row | IC50 [nM] | SMILES
23 | ≤ 10 | Cn1cc(-c2ccncc2)c(-c2ccc(C#Cc3ccc4ccccc4n3)nc2)n1 [Example 24, 2-(5-(1-methyl-4-pyridin-4-yl-1H-pyrazol-3-yl)pyridin-2-ylethynyl)quinoline]
24 | ≤ 10 | FCCn1cc(-c2ccncc2)c(-c2ccc(C#Cc3ccc4ccccc4n3)nc2)n1 [Example 32, 2-((5-(1-(2-fluoroethyl)-4-(pyridin-4-yl)-1H-pyrazol-3-yl)pyridin-2-yl)ethynyl)quinoline]
25 | ≤ 10 | C(#Cc1ccc2ccccc2n1)c1ccc(-c2ccnn2-c2ccncc2)cc1 [Example 28, 2-((4-(1-(pyridin-4-yl)-1H-pyrazol-5-yl)phenyl)ethynyl)quinoline]
26 | ≤ 10 | COCCn1cc(-c2ccncc2)c(-c2ccc(C#Cc3ccc4ccccc4n3)cc2)n1 [Example 16, 2-((4-(1-(2-methoxyethyl)-4-(pyridin-4-yl)-1H-pyrazol-3-yl)phenyl)ethynyl)quinoline]
27 | ≤ 10 | OCCn1cc(-c2ccncc2)c(-c2ccc(C#Cc3ccc4ccccc4n3)cc2)n1 [Example 13, 2-(4-(pyridin-4-yl)-3-(4-(quinolin-2-ylethynyl)phenyl)-1H-pyrazol-1-yl)ethanol]
28 | ≤ 10 | Cc1ccc(C#Cc2ccc(-c3nn(C)cc3-c3ccncc3)cc2)nc1 [Example 6]
29 | ≤ 10 | CNCCn1cc(-c2ccncc2)c(-c2ccc(C#Cc3ccc4ccccc4n3)cc2)n1 [Example 14, N-methyl-2-(4-(pyridin-4-yl)-3-(4-(quinolin-2-ylethynyl)phenyl)-1H-pyrazol-1-yl)ethanamine]
30 | ≤ 10 | Cn1cc(-c2ccncc2)c(-c2ccc(C#Cc3ccc4ccccc4n3)cc2)n1 [Example 1, 2-((4-(1-methyl-4-(pyridin-4-yl)-1H-pyrazol-3-yl)phenyl)ethynyl)quinoline]
31 | ≤ 10 | C(#Cc1ccc2ccccc2n1)c1ccc(-n2nccc2-c2ccncc2)cc1 [Example 22, 2-((4-(5-(pyridin-4-yl)-1H-pyrazol-1-yl)phenyl)ethynyl)quinoline]
32 | ≤ 10 | Cn1cc(-c2ccncc2)c(-c2ccc(C#Cc3ccc(C4CC4)cn3)cc2)n1 [Example 7, 5-cyclopropyl-2-((4-(1-methyl-4-(pyridin-4-yl)-1H-pyrazol-3-yl)phenyl)ethynyl)pyridine]
33 | ≤ 10 | FC(F)(F)Cn1cc(-c2ccncc2)c(-c2ccc(C#Cc3ccc4ccccc4n3)cc2)n1 [Example 18]
34 | ≤ 10 | CCc1cccc(C#Cc2ccc(-c3nn(C)cc3-c3ccncc3)cc2)n1 [Example 4, 2-Ethyl-6-((4-(1-methyl-4-(pyridin-4-yl)-1H-pyrazol-3-yl)phenyl)ethynyl)pyridine]
35 | ≤ 10 | COc1cccc(C#Cc2ccc(-c3nn(C)cc3-c3ccncc3)cc2)n1 [Example 10, 2-methoxy-6-((4-(1-methyl-4-(pyridin-4-yl)-1H-pyrazol-3-yl)phenyl)ethynyl)pyridine]
